Target: T1, purified ITK (Invitrogen PV3875) (Homo sapiens, UniProt Q08881)
T1 construct: purchased Invitrogen PV3875
T1 sequence (Q08881 1-620): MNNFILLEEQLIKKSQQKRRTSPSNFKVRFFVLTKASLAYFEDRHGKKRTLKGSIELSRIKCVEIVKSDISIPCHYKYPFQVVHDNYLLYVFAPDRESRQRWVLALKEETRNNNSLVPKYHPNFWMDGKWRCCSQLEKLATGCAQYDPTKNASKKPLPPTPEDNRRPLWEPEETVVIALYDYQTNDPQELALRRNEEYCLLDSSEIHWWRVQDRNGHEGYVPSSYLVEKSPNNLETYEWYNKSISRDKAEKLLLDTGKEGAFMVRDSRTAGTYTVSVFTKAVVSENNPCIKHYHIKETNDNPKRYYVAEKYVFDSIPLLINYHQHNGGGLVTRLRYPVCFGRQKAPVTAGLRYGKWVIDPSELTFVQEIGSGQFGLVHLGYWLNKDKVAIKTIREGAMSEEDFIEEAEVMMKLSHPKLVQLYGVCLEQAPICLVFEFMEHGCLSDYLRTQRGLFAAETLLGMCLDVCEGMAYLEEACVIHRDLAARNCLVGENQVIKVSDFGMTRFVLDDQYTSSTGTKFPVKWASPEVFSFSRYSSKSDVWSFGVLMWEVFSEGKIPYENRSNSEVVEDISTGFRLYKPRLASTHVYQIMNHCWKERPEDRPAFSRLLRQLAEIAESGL
Experiment: ITK peptide phosphorylation assay (Caliper LabChip or LCMS)
Type: biochemical
Experimental: The ability of purified ITK (Invitrogen PV3875) to catalyze peptide phosphorylation is monitored using a Caliper LabChip 3000 microfluidic unit (Caliper assay) or by liquid chromatography-mass spectrometry (LCMS) using a Waters Acquity system (LCMS assay). […] Reactions are quenched by the addition of 2,2′,2″,2′″-(ethane-1,2-diyldinitrilo)tetraacetic acid (50 mM final). Non-phosphorylated substrate and phosphorylated product peptides are separated and quantified using a Caliper LabChip 3000 instrument. […] Reactions are quenched by the addition of trichloroacetic acid (5% v/v final). Non-phosphorylated substrate and phosphorylated product peptides are separated by ultra performance LC and detected by a coupled triple quadrupole MS device applying multiple reaction monitoring (MRM) for quantification. The area of the MRM-extracted mass signal is used to assess the inhibition by test compounds. Equilibrium dissociation constant (Ki) values for ITK inhibitors are calculated from plots of activity vs. inhibitor concentration using Morrison's quadratic equation that accounts for the potential of tight binding, and by also applying the conversion factor that accounts for competitive inhibition and the concentration of ATP used in the assay relative to its apparent Michaelis constant (Km,app).

[1] = Table 2, Examples 1-140, class symbols
[2] = Table 3, specific values for certain examples

NC(=O)c1cccc(Cn2cc(NC(=O)c3n[nH]c4cc(-c5cccnc5)ccc34)cn2)c1 [Example 31, N-[1-[(3-carbamoylphenyl)methyl]pyrazol-4-yl]-6-(3-pyridyl)-1H-indazole-3-carboxamide]
Ki [1]: 1 to 100 nM

N#Cc1cccc(Cn2cc(NC(=O)c3n[nH]c4ccc(NC5CCOCC5)cc34)cn2)c1 [Example 194, N-[1-[(3-cyanophenyl)meth-yl]pyrazol-4-yl]-5-(tetrahydropyran-4-ylamino)-1H-indazole-3-carboxamide]
Ki (Table 1, Examples 141-279): 106 nM

Nc1ccc(-c2ccc3c(C(=O)Nc4cnn(Cc5cscn5)c4)n[nH]c3c2)cn1 [Example 45, 6-(6-Amino-pyridin-3-yl)-1H-indazole-3-carboxylic acid (1-thiazol-4-ylmethyl-1H-pyrazol-4-yl)-amide]
Ki [1]: 1 to 100 nM

Cc1ccccc1Cn1cc(NC(=O)c2n[nH]c3ccccc23)cn1 [Example 56, N-(1-(2-methylbenzyl)-1H-pyrazol-4-yl)-1H-indazole-3-carboxamide]
Ki [1]: 1 to 100 nM

CC[C@@H](c1ccccc1)n1cc(NC(=O)c2n[nH]c3cc(-c4ccc(N)nc4)ccc23)cn1 [Example 136, (S)-6-(6-aminopyridin-3-yl)-N-(1-(1-phenylpropyl)-1H-pyrazol-4-yl)-1H-indazole-3-carboxamide]
Ki [1]: 1 to 100 nM

O=C(Nc1cnn(Cc2ccccc2)c1)c1n[nH]c2cc(-c3cnc4c(c3)CCCO4)ccc12 [Example 209, N-(1-benzylpyrazol-4-yl)-6-(3,4-dihydro-2H-pyrano[2,3-b]pyridin-6-yl)-1H-indazole-3-carboxamide]
Ki (Table 1, Examples 141-279): 66.2 nM

CC[C@H](c1cscn1)n1cc(NC(=O)c2n[nH]c3cc(-c4cn[nH]c4)ccc23)cn1 [Example 174, 6-(1H-pyrazol-4-yl)-N-[1-[(1R)-1-thiazol-4-ylpropyl]pyrazol-4-yl]-1H-indazole-3-carboxamide]
Ki (Table 1, Examples 141-279): 1.42 nM

N#Cc1cccc(Cn2cc(NC(=O)c3n[nH]c4cc(-c5cncnc5)ccc34)cn2)c1 [Example 164, N-[1-[(3-cyanophenyl)meth-yl]pyrazol-4-yl]-6-pyrimidin-5-yl-1H-indazole-3-carboxamide]
Ki (Table 1, Examples 141-279): 16.9 nM

O=C(Nc1cnn(CC2CCCOC2)c1)c1n[nH]c2cc(-c3cn[nH]c3)ccc12 (stereo not shown) [Example 241, 6-(1H-pyrazol-4-yl)-N-[1-(tetrahydropyran-3-ylmethyl)pyrazol-4-yl]-1H-indazole-3-carboxamide]
Ki (Table 1, Examples 141-279): 2.79 nM

O=C(Nc1cnn(C2CCOc3ccccc32)c1)c1n[nH]c2cc(-c3cn[nH]c3)ccc12 (stereo not shown) [Example 185, N-(1-chroman-4-ylpyrazol-4-yl)-6-(1H-pyrazol-4-yl)-1H-indazole-3-carboxamide]
Ki (Table 1, Examples 141-279): 759 nM

O=C(Nc1cnn(Cc2cccnc2)c1)c1n[nH]c2ccccc12 [Example 54, N-(1-(pyridin-3-ylmethyl)-1H-pyrazol-4-yl)-1H-indazole-3-carboxamide]
Ki [1]: 1 to 100 nM | Ki [2]: 53.2 nM

Cc1cc2c(C(=O)Nc3cnn(Cc4cccc(C#N)c4)c3)n[nH]c2cc1-c1cc[nH]n1 [Example 156, N-[1-[(3-cyanophenyl)meth-yl]pyrazol-4-yl]-5-methyl-6-(1H-pyrazol-3-yl)-1H-indazole-3-carboxamide]
Ki (Table 1, Examples 141-279): 80.8 nM

CN(CCC(c1ccccc1)n1cc(NC(=O)c2n[nH]c3ccccc23)cn1)CC(F)(F)F (stereo not shown) [Example 270, N-[1-[3-[methyl(2,2,2-trifluoroethyl)a-mino]-1-phenyl-propyl]pyrazol-4-yl]-1H-indazole-3-carboxamide]
Ki (Table 1, Examples 141-279): 8.92 nM

O=C(Nc1cnn(CCc2ccccc2)c1)c1n[nH]c2cc(-c3cn[nH]c3)ccc12 [Example 11, 6-(1H-Pyrazol-4-yl)-1H-indazole-3-carboxylic acid (1-phenethyl-1H-pyrazol-4-yl)-amide]
Ki [1]: 1 to 100 nM

CCC(CC)Cn1cc(NC(=O)c2n[nH]c3cc(-c4cn[nH]c4)ccc23)cn1 [Example 238, N-[1-(2-ethylbutyl)pyrazol-4-yl]-6-(1H-pyrazol-4-yl)-1H-indazole-3-carboxamide]
Ki (Table 1, Examples 141-279): 2.79 nM

N#Cc1cccc(Cn2cc(NC(=O)c3n[nH]c4cc(-n5ccnc5)ccc34)cn2)c1 [Example 142, N-[1-[(3-cyanophenyl)meth-yl]pyrazol-4-yl]-6-imidazol-1-yl-1H-indazole-3-carboxamide]
Ki (Table 1, Examples 141-279): 32.4 nM

O=C(Nc1cnn(Cc2ccc(CN3CCC(O)C3)cc2)c1)c1n[nH]c2ccccc12 (stereo not shown) [Example 114, N-(1-(4-((3-hydroxypyrrolidin-1-yl)methyl)benzyl)-1H-pyrazol-4-yl)-1H-indazole-3-carboxamide]
Ki [1]: 1 to 100 nM

N#Cc1cccc(Cn2cc(NC(=O)c3n[nH]c4cc(-c5cncs5)ccc34)cn2)c1 [Example 202, N-[1-[(3-cyanophenyl)meth-yl]pyrazol-4-yl]-6-thiazol-5-yl-1H-indazole-3-carboxamide]
Ki (Table 1, Examples 141-279): 5.77 nM

O=C(Nc1cnn(CC2CCOCC2)c1)c1n[nH]c2cc(-c3cn[nH]c3)ccc12 [Example 242]
Ki (Table 1, Examples 141-279): 2.47 nM

N#Cc1cccc(Cn2cc(NC(=O)c3n[nH]c4ccc(NC5CCNCC5)cc34)cn2)c1 [Example 180, N-[1-[(3-cyanophenyl)methyl]pyrazol-4-yl]-5-(4-piperidylamino)-1H-indazole-3-carboxamide]
Ki (Table 1, Examples 141-279): 2.71 nM

COc1cncc(-c2ccc3c(C(=O)Nc4cnn(Cc5cccc(C#N)c5)c4)n[nH]c3c2)c1 [Example 166, N-[1-[(3-cyanophenyl)meth-yl]pyrazol-4-yl]-6-(5-methoxy-3-pyridyl)-1H-indazole-3-carboxamide]
Ki (Table 1, Examples 141-279): 7.74 nM

CNc1cc(-c2ccc3c(C(=O)Nc4cnn(Cc5ccccc5)c4)n[nH]c3c2)ncn1 [Example 217, N-(1-benzylpyrazol-4-yl)-6-[6-(methylamino)py-rimidin-4-yl]-1H-indazole-3-carboxamide]
Ki (Table 1, Examples 141-279): 404 nM

O=C(Nc1cnn(CCN2CCCC(O)C2)c1)c1n[nH]c2ccccc12 (stereo not shown) [Example 75, N-(1-(2-(3-Hydroxypiperidin-1-yl)ethyl)-1H-pyrazol-4-yl)-1H-indazole-3-carboxamide]
Ki [1]: > 100 nM | Ki [2]: 428 nM

CN(C)CC(c1ccccc1)n1cc(NC(=O)c2n[nH]c3ccccc23)cn1 (stereo not shown) [Example 276, N-[1-[2-(dimethylamino)-1-phenyl-ethyl]pyrazol-4-yl]-1H-indazole-3-carboxamide]
Ki (Table 1, Examples 141-279): 152 nM

CC(O)CNCc1cccc(Cn2cc(NC(=O)c3n[nH]c4ccccc34)cn2)c1 (stereo not shown) [Example 93, N-(1-(3-((2-hydroxypropylamino)methyl)benzyl)-1H-pyrazol-4-yl)-1H-indazole-3-carboxamide]
Ki [1]: 1 to 100 nM

CS(=O)(=O)CCC(c1ccccc1)n1cc(NC(=O)c2n[nH]c3ccccc23)cn1 (stereo not shown) [Example 277, N-[1-(3-methylsulfonyl-1-phenyl-propyl)pyrazol-4-yl]-1H-indazole-3-carboxamide]
Ki (Table 1, Examples 141-279): 114 nM

CNc1cncc(-c2ccc3c(C(=O)Nc4cnn(Cc5ccccc5)c4)n[nH]c3c2)n1 [Example 189, N-(1-benzylpyrazol-4-yl)-6-[6-(methylamino)py-razin-2-yl]-1H-indazole-3-carboxamide]
Ki (Table 1, Examples 141-279): 24.8 nM

COc1ccc2c(C(=O)Nc3cnn(Cc4cccc(C#N)c4)c3)n[nH]c2c1 [Example 6, N-(1-(3-cyanobenzyl)-1H-pyrazol-4-yl)-6-methoxy-1H-indazole-3-carboxamide]
Ki [1]: 1 to 100 nM

NC(=O)c1ccc(Cn2cc(NC(=O)c3n[nH]c4cc(-c5cn[nH]c5)ccc34)cn2)cc1 [Example 12, 6-(1H-Pyrazol-4-yl)-1H-indazole-3-carboxylic acid [1-(4-carbamoyl-benzyl)-1H-pyrazol-4-yl]-amide]
Ki [1]: 0.01 to 1 nM

O=C(Nc1cnn(Cc2cccc(C(=O)N3CCC(O)CC3)c2)c1)c1n[nH]c2cc(-c3cn[nH]c3)ccc12 [Example 22, 6-(1H-Pyrazol-4-yl)-1H-indazole-3-carboxylic acid {1-[3-(4-hydroxy-1-piperidine-1-carbonyl)-benzyl]-1H-pyrazol-4-yl}amide]
Ki [1]: 1 to 100 nM

O=C(Nc1cnn(Cc2cccc(N3CCC(O)C3)c2)c1)c1n[nH]c2cc(-c3cn[nH]c3)ccc12 (stereo not shown) [Example 161, N-[1-[[3-(3-hydroxypyrrolidin-1-yl)phenyl]meth-yl]pyrazol-4-yl]-6-(1H-pyrazol-4-yl)-1H-indazole-3-carboxamide]
Ki (Table 1, Examples 141-279): 1.15 nM

Cc1n[nH]c(C)c1CCn1cc(NC(=O)c2n[nH]c3cc(-c4cn[nH]c4)ccc23)cn1 [Example 13, 6-(1H-Pyrazol-4-yl)-1H-indazole-3-carboxylic acid {1-[2-(3,5-dimethyl-1H-pyrazol-4-yl)-ethyl]-1H-pyrazol-4-yl}-amide]
Ki [1]: 1 to 100 nM

From patent publication US20140309210A1, “INDAZOLE COMPOUNDS, COMPOSITIONS AND METHODS OF USE THEREOF” (Genentech, Inc., priority 2011, published 2014)
